Patent publication US20220363665A1, “QUINOLINE COMPOUNDS FOR THE TREATMENT OF AUTOIMMUNE DISEASE” (Hoffmann-La Roche Inc., priority 2019, published 2022)

Experiments:
human TLR9 = biological target: T1, human TLR9 (Homo sapiens, UniProt Q9NR96); assay: HEK293-Blue-hTLR-9 cells assay (SEAP reporter, ODN2006 stimulation); type: cell-based; settings: HEK293-Blue-hTLR9 cells, ODN2006, 20 hrs
T1 construct: host or cells: HEK293 (HEK-Blue hTLR9)
T1 sequence (Q9NR96 26-1032): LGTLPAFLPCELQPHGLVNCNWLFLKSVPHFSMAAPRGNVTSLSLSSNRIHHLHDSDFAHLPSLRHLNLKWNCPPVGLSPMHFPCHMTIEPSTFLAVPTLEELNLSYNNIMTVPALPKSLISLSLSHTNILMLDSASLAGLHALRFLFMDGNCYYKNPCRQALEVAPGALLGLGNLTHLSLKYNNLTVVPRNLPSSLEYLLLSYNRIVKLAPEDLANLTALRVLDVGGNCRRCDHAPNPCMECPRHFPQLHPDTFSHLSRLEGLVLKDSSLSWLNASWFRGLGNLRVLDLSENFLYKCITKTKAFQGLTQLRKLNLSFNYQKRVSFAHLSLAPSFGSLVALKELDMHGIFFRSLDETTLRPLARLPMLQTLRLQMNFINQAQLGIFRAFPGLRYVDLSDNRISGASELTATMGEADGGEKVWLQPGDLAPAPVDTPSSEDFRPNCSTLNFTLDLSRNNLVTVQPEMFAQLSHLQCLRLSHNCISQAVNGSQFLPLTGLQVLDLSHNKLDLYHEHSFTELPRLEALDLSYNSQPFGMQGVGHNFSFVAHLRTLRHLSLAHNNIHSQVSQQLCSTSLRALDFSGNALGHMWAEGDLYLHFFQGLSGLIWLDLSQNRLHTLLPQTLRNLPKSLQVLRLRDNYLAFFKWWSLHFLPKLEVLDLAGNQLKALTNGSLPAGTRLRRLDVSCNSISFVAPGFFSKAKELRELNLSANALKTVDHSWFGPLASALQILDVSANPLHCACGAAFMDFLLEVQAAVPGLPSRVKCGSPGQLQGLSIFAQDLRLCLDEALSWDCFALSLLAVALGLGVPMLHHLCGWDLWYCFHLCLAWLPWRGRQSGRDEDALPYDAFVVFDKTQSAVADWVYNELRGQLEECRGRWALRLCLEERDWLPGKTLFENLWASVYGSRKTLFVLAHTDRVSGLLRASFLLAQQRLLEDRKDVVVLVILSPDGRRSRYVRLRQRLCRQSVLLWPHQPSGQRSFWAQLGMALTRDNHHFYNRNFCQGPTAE
Description: The following tests were carried out in order to determine the activity of the compounds of formula (I) in HEK293-Blue-hTLR-7/8/9 cells assay.
HEK293-Blue-hTLR-9 Cells Assay:
A stable HEK293-Blue-hTLR-9 cell line was purchased from InvivoGen (Cat. #. hkb-htlr9, San Diego, Calif., USA). These cells were originally designed for studying the stimulation of human TLR9 by monitoring the activation of NF-κB. A SEAP (secreted embryonic alkaline phosphatase) reporter gene was placed under the control of the […] minimal promoter fused to five NF-κB and AP-1-binding sites. The SEAP was induced by activating NF-κB and AP-1 via stimulating HEK-Blue hTLR9 cells with TLR9 ligands. Therefore the reporter expression was declined by TLR9 antagonist under the stimulation of a ligand, such as ODN2006 (Cat. #: tlrl-2006-1, Invivogen, San Diego, Calif., USA), for incubation of 20 hrs. The cell culture supernatant SEAP reporter activity was determined using QUANTI-Blue™ kit (Cat. #: rep-qbl, Invivogen, San Diego, Calif., USA) at a wavelength of 640 nm, a detection medium that turns purple or blue in the presence of alkaline phosphatase.
HEK293-Blue-hTLR9 cells were incubated at a density of […] cells/mL in a volume of 170 μL, in a 96-well plate in Dulbecco's Modified Eagle's medium (DMEM) containing 4.5 g/L glucose, 50 U/mL penicillin, […], […], 2 mM L-glutamine, 10% (v/v) heat-inactivated fetal bovine serum with addition of 20 μL test compound in a serial dilution in the presence of final DMSO at 1% and 10 μL of 20 uM ODN2006 in above DMEM, perform incubation under 37° C. in a CO2 incubator for 20 hrs. Then 20 μL of the supernatant from each well was incubated with 180 μL Quanti-blue substrate solution at 37° C. for 2 hrs and the absorbance was read at 620˜655 nm using a spectrophotometer. The signalling pathway that TLR9 activation leads to downstream NF-κB activation has been widely accepted, and therefore similar reporter assay was modified for evaluating TLR9 antagonist.

CYP2C9 = biological target: T2, CYP2C9 (Homo sapiens, UniProt P11712); assay: CYP inhibition assay in human liver microsome, CYP2C9; type: in vitro ADME; settings: HLM, diclofenac substrate; for inhibition at 5 min, 10 µM: human, liver microsomes, probe diclofenac, read-out: CYP inhibition % @10 uM (2C9)
T2 construct: tissue BD-Gentest 452117; host or cells: human liver microsomes
T2 sequence (P11712 whole entry): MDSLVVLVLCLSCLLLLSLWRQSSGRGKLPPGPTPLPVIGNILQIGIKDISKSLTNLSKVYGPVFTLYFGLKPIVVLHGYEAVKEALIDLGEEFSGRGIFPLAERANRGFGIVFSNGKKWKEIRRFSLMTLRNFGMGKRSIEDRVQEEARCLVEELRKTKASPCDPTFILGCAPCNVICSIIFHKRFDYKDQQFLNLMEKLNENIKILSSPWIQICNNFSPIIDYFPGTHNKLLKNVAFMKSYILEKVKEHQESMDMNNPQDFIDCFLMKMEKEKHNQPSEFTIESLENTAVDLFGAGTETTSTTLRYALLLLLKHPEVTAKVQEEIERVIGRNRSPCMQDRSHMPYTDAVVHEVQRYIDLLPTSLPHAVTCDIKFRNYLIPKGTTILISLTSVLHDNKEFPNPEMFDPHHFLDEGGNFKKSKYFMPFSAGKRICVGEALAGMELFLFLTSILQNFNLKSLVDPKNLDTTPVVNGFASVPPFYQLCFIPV
Description: This is a high throughput screening assay used for assessment of reversible inhibition of CYP2C9, CYP2D6, and CYP3A4 activity of test compounds in human liver microsome (HLM) in early discovery stage.
10 mM DMSO stock solutions of test compounds were diluted in DMSO to generate 2 mM intermediate stock solution. 250 nL of intermediate stock solution were transferred in duplicate into 3 separate 384 well microtitre plates (assay-ready plates). A mixture of HLM and each substrate was made up. 45 μL of HLM substrate mix was then transferred to each well of an assay ready plate and mixed. The negative (solvent) and positive controls (standard inhibitor for each CYP) were included in each assay ready plate. The assay ready plate was warmed to 37° C. in an incubator over 10 minutes. 5 μL pre-warmed NADPH regenerating system was added to each incubation well to start the reaction. Final incubation volume was 50 μL. The assay plate then was placed back in the 37° C. incubator. After 5 minutes incubation (10 minutes for CYP2D6), incubates were quenched by addition of 50 μL quench reagent containing internal standards (400 ng/mL 13C6-4′-OH-Diclofenac, 20 ng/mL D3-Dextrorphan and 20 ng/mL D4-1′OH-Midazolam in acetonitrile). The supernatants were collected for RapidFire/MS/MS analysis.
RapidFire online solid phase extraction/sample injection system (Agilent) coupled with API4000 triple quadrupole mass spectrometer (AB Sciex) were used for sample analysis. The mobile phase composed of acetonitrile and water supplemented with 0.1% formic acid. A C4 solid phase extraction cartridge is used for sample separation. MS detection is achieved in positive ion MRM mode.
Peak areas for substrate, metabolite and internal standard are determined using the
RapidFire integrator software (version 3.6.12009.12296). Peak area ratios (PAR) of metabolite and internal standard (stable-labelled metabolite) are then calculated. The measurement window for each experiment is then defined:
PAR (0% activity)=average PAR for all incubations containing concentrated inhibitor;
Par (100% activity)=average PAR for all incubations containing no inhibitor (DMSO controls);
% Activity (test inhibitor) =[PAR(test inhibitor)-PAR(0% activity)][PAR(100% activity)-PAR(0% activity)];
% Inhibition (test inhibitor)=100-% Activity (test inhibitor).
Percentage inhibition data are then reported, in duplicate, for the 3 CYP enzymes.

SMILES | IC50 (human TLR9) [µM] | CYP inhibition % @10 uM (2C9) (CYP2C9) [%] | inhibition at 5 min, 10 µM (CYP2C9) [%]
C[C@@H]1CN(c2ccc(C(F)(F)F)c3ncccc23)C[C@H](C(=O)NC2CC3CCCC(C2)N3)O1 (single isomer, unassigned) [Example 34B] | 10 | −8 | 
CC(NC(=O)[C@H]1CN(c2ccc(C(F)(F)F)c3ncccc23)C[C@@H](C)O1)C1CN(C)CCO1 (single isomer, unassigned) [Example 35A] | 42.7 |  | 10
CC(NC(=O)[C@H]1CN(c2ccc(C(F)(F)F)c3ncccc23)C[C@@H](C)O1)C1CN(C)CCO1 (single isomer, unassigned) [Example 35B] | 50.2 | 6 | 
C[C@@H]1CN(c2ccc(C(F)(F)F)c3ncccc23)C[C@H](C(=O)NC2CC3CNCC32)O1 (single isomer, unassigned) [Example 49A] | 10.7 | −1 | 
C[C@@H]1CN(c2ccc(C(F)(F)F)c3ncccc23)C[C@H](C(=O)NC2CC3CNCC32)O1 (single isomer, unassigned) [Example 49B] | 7.3 | −2 | 
C[C@@H]1CN(c2ccc(C(F)(F)F)c3ncccc23)C[C@H](C(=O)NC2CC3CNCC32)O1 (single isomer, unassigned) [Example 49C] | 7.7 | 11 | 
C[C@@H]1CN(c2ccc(C(F)(F)F)c3ncccc23)C[C@H](C(=O)NCC2CN(C)CCO2)O1 (stereo partly drawn) [Example 3, (2R,6R)-6-methyl-N-[(4-methylmorpholin-2-yl)methyl]-4-[8-(trifluoromethyl)-5-quinolyl]morpholine-2-carboxamide] | 81.9 |  | -1
C[C@@H]1CN(c2ccc(C(F)(F)F)c3ncccc23)C[C@H](C(=O)NCC2CCCCN2C)O1 (stereo partly drawn) [Example 4, (2R,6R)-6-methyl-N-[(1-methyl-2-piperidyl)methyl]-4-[8-(trifluoromethyl)-5-quinolyl]morpholine-2-carboxamide] | 11.4 |  | -12
C[C@@H]1CN(c2ccc(C(F)(F)F)c3ncccc23)C[C@H](C(=O)NC2CCN(C)CC2)O1 [Example 5, (2R,6R)-6-methyl-N-(1-methyl-4-piperidyl)-4-[8-(trifluoromethyl)-5-quinolyl]morpholine-2-carboxamide] | 15.5 |  | -1
C[C@@H]1CN(c2ccc(C(F)(F)F)c3ncccc23)C[C@H](C(=O)NCC(C)(C)N)O1 [Example 6, (2R,6R)-N-(2-amino-2-methyl-propyl)-6-methyl-4-[8-(trifluoromethyl)-5-quinolyl]morpholine-2-carboxamide] | 29.8 |  | -13
C[C@@H]1CN(c2ccc(C(F)(F)F)c3ncccc23)C[C@H](C(=O)NC2CCCNCC2)O1 (stereo partly drawn) [Example 8, (2R,6R)-N-(azepan-4-yl)-6-methyl-4-[8-(trifluoromethyl)-5-quinolyl]morpholine-2-carboxamide] | 10.3 |  | -8
C[C@@H]1CN(c2ccc(C(F)(F)F)c3ncccc23)C[C@H](C(=O)NC2CN(C)CC23CC3)O1 (stereo partly drawn) [Example 9, (2R,6R)-6-methyl-N-(5-methyl-5-azaspiro[2.4]heptan-7-yl)-4-[8-(trifluoromethyl)-5-quinolyl]morpholine-2-carboxamide] | 10.9 |  | 2
C[C@@H]1CN(c2ccc(C(F)(F)F)c3ncccc23)C[C@H](C(=O)N2CCC(N)C2)O1 (stereo partly drawn) [Example 10, (3-aminopyrrolidin-1-yl)-[(2R,6R)-6-methyl-4-[8-(trifluoromethyl)-5-quinolyl]morpholin-2-yl]methanone] | 18.4 |  | 11
C[C@@H]1CN(c2ccc(C(F)(F)F)c3ncccc23)C[C@H](C(=O)NCC2COCCN2C)O1 (stereo partly drawn) [Example 11, (2R,6R)-6-methyl-N-[(4-methylmorpholin-3-yl)methyl]-4-[8-(trifluoromethyl)-5-quinolyl]morpholine-2-carboxamide] | > 100 |  | -4
C[C@@H]1CN(c2ccc(C(F)(F)F)c3ncccc23)C[C@H](C(=O)N2CCC(N)CC2)O1 [Example 12, (4-amino-1-piperidyl)-[(2R,6R)-6-methyl-4-[8-(trifluoromethyl)-5-quinolyl]morpholin-2-yl]methanone] | 6.3 |  | 12
C[C@@H]1CN(c2ccc(C(F)(F)F)c3ncccc23)C[C@H](C(=O)NCCN2CCOCC2)O1 [Example 13, (2R,6R)-6-methyl-N-(2-morpholinoethyl)-4-[8-(trifluoromethyl)-5-quinolyl]morpholine-2-carboxamide] | > 100 |  | 1
C[C@@H]1CN(c2ccc(C(F)(F)F)c3ncccc23)C[C@H](C(=O)NC2CNCCOC2)O1 (stereo partly drawn) [Example 14, (2R,6R)-6-methyl-N-(1,4-oxazepan-6-yl)-4-[8-(trifluoromethyl)-5-quinolyl]morpholine-2-carboxamide] | 29.4 |  | -2
Cc1ccc(N2C[C@@H](C)C[C@@H](N)C2)c2cccnc12 [Example 15, (3R,5S)-5-methyl-1-(8-methyl-5-quinolyl)piperidin-3-amine] | 14 |  | -17
